What was measured:
[1] = system: constant white light-induced retinal damage; assay: Experiment 1: protective effect against constant white light-induced retinal damage (ERG a-wave), intraperitoneal administration; format: in vivo, Male Wistar rats; conditions: rats, 50 mg/kg intraperitoneally twice, in 0.5% methylcellulose; ERG a-wave amplitude after two days constant light
Source text: Retinal outer nuclear cells have been known to be degenerated by the constant white light exposure to albino rats (L. M. Rapp, et al., New York: Plenum, 135 (1980)). Effectiveness of the compounds of formula 1, 2 or 3 or pharmaceutical acceptable salts thereof can be evaluated by their protective action against constant light exposure-induced retinal degeneration in rats. The present invention is embodied by the following experiment.
(§1) Pharmacological Effect Against Constant White Light-induced Retinal Damage
(§2) Male Wistar rats (7 weeks old, Charles River Japan Inc.) were purchased and maintained in cyclic light/dark environment (8:00-20:00/light term) for one week, and then placed within the apparatus for constant white light exposure for two days. The constant white light exposure apparatus is a covered breeding box of 1020 mm in length, 425 mm in width, 520 mm in height, which is made of acryl boards and of which all inner side are covered with mirrors. Light was continuously irradiated all the day long (24 hours) using white fluorescent lamp attached to the ceiling of the apparatus. The average illuminance in the apparatus was 174.2 foot candle. After two days in the apparatus, the rats were moved to a darkroom and dark adapted for 1-4 hours. The rats were anesthetized with pentobarbital and placed in a stereotaxic frame. After topical mydriatica was given and electrodes were put on corneal surface, center of the forehead and the lower part of the lobe, the response in active potential of retina to the flash stimulation with fixed energy was determined from the recorded ERG (electroretinogram). The damage of retina was evaluated by the decrease in the amplitude of ERG a-wave which originated from retinal outer nuclear cells (photoreceptors). Test compounds were intraperitoneally injected just before placing the rats into the constant light exposure apparatus and at the same time on the next day to investigate its protective effect.
According to the experimental procedure described above, each test compound in the present invention, which was suspended or dissolved in 0.5% methylcellulose (MC) solution, was intraperitoneally administered twice to three rats in a group at the dose of 50 mg/kg. In the same way, 0.5% MC solution was intraperitoneally administered to the rats in MC group. The rats maintained in 12 hours cyclic light/dark environment were used for normal control group. The protection by the compounds against the retinal damage was represented as % recovery value, and the results were shown in Table 1. % recovery=(x−z)÷(y−z)×100 • x : a-wave amplitude in test compound group • y : a-wave amplitude in normal control group • z : a-wave amplitude in MC group

[2] = system: constant white light-induced retinal damage; assay: Experiment 2: protective effect against constant white light-induced retinal damage (ERG a-wave), administration of eye drops; format: in vivo; conditions: rats, 50 μl per once to both eyes, at 0, 3, 6, 9 and 24 hours
Source text: as §2, §1
(§3) The protective effect of the compound of Examples by administration of eye drops was tested by the same method as Experiment 1. The tested compounds were administered immediately before rats were placed within the apparatus for constant white light exposure. Further, the eye drops were administered 3, 6, 9 and 24 hours after and the effect was evaluated.
(§4) The compounds of the present invention were dissolved in 0.5% aqueous methylcellulose (MC) solution and each 50 μl of the solution per once was dropped to both eyes of 5 rats, according to the method of Experiment 1. In the same way, 0.5% MC solution was dropped to eyes of the rats in MC group.
The rats maintained in 12 hours cyclic light/dark environment were used for normal control group.

[3] = system: constant white light-induced retinal damage; assay: Experiment 3: protective effect against constant white light-induced retinal damage (ERG a-wave), eye drops, several concentrations; format: in vivo; conditions: rats, 50 μl per once to both eyes
Source text: as §2, §3, §1
The compound of Example 50 was further tested by the same method as Experiment 2.
as §4, with “compound” for “compounds”, “was” for “were”, “group. The rats maintained in 12 hours cyclic light/dark environment were used for normal control group.” for “group.”

CC(C)(C)NC(=O)c1ccc(F)cc1F [Example 1, N-t-Butyl-2,4-difluorobenzamide]
% recovery (Mean ± S.E.M.) [1]: 95.5 ± 12.3% | % recovery (Mean ± S.E.M.) ([2]; eye drops 2 mg/ml in 0.5% MC): 11.6 ± 2.6%

CC(C)(C)NC(=O)c1ccc(F)cc1 [Example 6, N-t-Butyl-4-fluorobenzamide]
% recovery (Mean ± S.E.M.) [1]: 80.1 ± 8.9%

CC(C)(C)NC(=O)c1cc(F)ccc1F [Example 25, N-t-Butyl-2,5-difluorobenzamide]
% recovery (Mean ± S.E.M.) ([2]; eye drops 1.2 mg/ml in 0.5% MC): 16.2 ± 3.2%

CC(C)(CO)NC(=O)c1ccc(F)cc1F [Example 27, N-(2-Hydroxy-1,1-dimethylethyl)-2,4-difluorobenzamide]
% recovery (Mean ± S.E.M.) [1]: 45.7 ± 10.1%

CC(C)(C)NC(=O)c1ccc(Cl)cn1 [Example 40, N-t-Butyl-5-chloro-2-pyridinecarboxamide]
% recovery (Mean ± S.E.M.) [1]: 82.3 ± 25.6%

CC(C)(CO)NC(=O)c1ccc(Cl)cn1 [Example 47, N-(2-Hydroxy-1,1-dimethylethyl)-5-chloro-2-pyridinecarboxamide]
% recovery (Mean ± S.E.M.) [1]: 58.2 ± 2.7%

CC(C)(C)NC(=O)c1ccccc1F [Example 48, N-t-butyl-2-fluorobenzamide]
% recovery (Mean ± S.E.M.) ([2]; eye drops 3.2 mg/ml in 0.5% MC): 15.0 ± 3.7%

CC(C)(C)NC(=O)c1ccc(Br)cc1F [Example 49, N-t-butyl-4-bromo-2-fluorobenzamide]
% recovery (Mean ± S.E.M.) ([2]; eye drops 0.4 mg/ml in 0.5% MC): 5.1 ± 1.8%

CC(C)(C)NC(=O)c1cccc[n+]1[O-] [Example 50, N-t-butyl-1-oxide-2-pyridinecarboxamide]
% recovery (Mean ± S.E.M.) ([2]; eye drops 10 mg/ml in 0.5% MC): 19.1 ± 7.5% | % recovery (Mean ± S.E.M.) ([3]; eye drops 3 mg/ml in 0.5% MC): 2.3 ± 3.8% | % recovery (Mean ± S.E.M.) ([3]; eye drops 10 mg/ml in 0.5% MC): 6.9 ± 5.7% | % recovery (Mean ± S.E.M.) ([3]; eye drops 30 mg/ml in 0.5% MC, ** p < 0.01 vs solvent only (Dunnett)): 17.4 ± 3.9** % | % recovery (Mean ± S.E.M.) ([3]; eye drops 60 mg/ml in 0.5% MC, ** p < 0.01 vs solvent only (Dunnett)): 35.6 ± 2.7** %

Reference: patent US6936736B2, “Amide derivative” (Sumitomo Manufacturing Company Limited, priority 1997, dated 2005)
